In data set [1] the target is T1, PRL-3 (Homo sapiens, UniProt O75365).
T1 construct: made in house; host or cells: E. coli DH5a
As to the kind of experiment: In vitro PTPase assay, recombinant PRL-3. Type of data set: biochemical. As to conditions: for PRL-3 PTPase activity remaining: 0.1-100 μg/ml. An excerpt: Sodium stibogluconate, suramin, sodium orthovanadate and GST fusion protein of SHP-1 have been described previously (Pathak et al., J. Imumol. 167, 3391 (2001)). Meglumine antimonate was obtained from Aventis. cDNAs of human PRL-1, PRL-2 and PRL-3 coding region were derived by RT-PCR from H9 cells (Safai, et al., Lancet 1, 1438 (1984)) and inserted in frame into the pGEX vector. cDNA of PRL-1R86 was generated by recombinant DNA technique using PRL-1 cDNA as template following established procedures (Jiao, et al., Mol. Cell. Biol. 16, 6985 (1996)). GST fusion proteins of the PRL phosphatases were prepared from DH5a bacteria transformed with the pGEX fusion protein constructs as described previously (Yi, et al., Mol. Cell. Biol. 12, 836 (1992)). cDNAs encoding the PRLs tagged at the N-termini with the Flag epitope (Castrucci, et al., J. Virol. 66, 4647 (1992)) were generated via recombinant DNA technique, sequenced to confirm their identities and cloned into the pBabepuro vector (Yang, et al., Blood 91, 3746 (1998)). Anti-Flag monoclonal antibody (M2, Sigma) was purchased from a commercial source. A synthetic phosphotyrosine peptide (Arg-Arg-Leu-Ile-Glu-Asp-Ala-Gle-Tyr-Al- -a-Ala-Arg-Gly (SEQ ID NO: 3), wherein the tyrosine is phosphorylated; UBI) and DiFMUP (6,8-difluoro-4-methylumbelliferyl phosphate, Molecular Probes) were purchased as substrates for PTPase assays.
In vitro PTPase assays were used to determine the effects of compounds on recombinant PTPases, following established procedures using a synthetic phosphotyrosine peptide or DiFMUP as the substrate (Pathak et al., J. Imumol. 167, 3391 (2001)). Briefly, individual PTPases (0.1 µg/reaction) in 50 µL of PTPase buffer (50 mM Tris, pH 7.4) were incubated at 22° C. for 10 minutes or as indicated in the absence or presence of inhibitory compounds. Substrates (0.2 mM phosphotyrosine peptide) were then added and allowed to react at 22° C. for 18 hrs. PTPase activity of individual reactions was measured by adding 100 µL of malachite green solution (UBI) and then quantifying the amounts of free phosphate cleaved by the PTPase from the peptide substrate by spectrometry (OD660 nm). PTPase assays using DiFMUP as a substrate were conducted following a previously described procedure (Matter, et al., Biochem. Biophys. Res. Comm. 283, 1061 (2001)). Relative PTPase activities were calculated based on the formula: (PTPase activity in the presence of an inhibitory compound/PTPase activity in the absence of the compound)× 100%. To assess the reversibility of PTPase inhibition, GST fusion proteins of the PTPases bound on glutathione beads (Pharmacia) were pre-incubated with cold Tris buffer (50 mM Tris, pH 7.0) or Tris buffer containing the inhibitor at 4° C. for 30 minutes. The beads were then washed three times in cold Tris buffer or not washed prior to subjecting to in vitro PTPase assays.

For data set [2], the target named is T2, PRL-2 (Homo sapiens, UniProt Q12974).
T2 construct: made in house; host or cells: E. coli DH5a
As to the kind of experiment: In vitro PTPase assay, recombinant PRL-2. In kind it is biochemical. From the text:
(§1) Sodium stibogluconate, suramin, sodium orthovanadate and GST fusion protein of SHP-1 have been described previously (Pathak et al., J. Imumol. 167, 3391 (2001)). Meglumine antimonate was obtained from Aventis. cDNAs of human PRL-1, PRL-2 and PRL-3 coding region were derived by RT-PCR from H9 cells (Safai, et al., Lancet 1, 1438 (1984)) and inserted in frame into the pGEX vector. cDNA of PRL-1R86 was generated by recombinant DNA technique using PRL-1 cDNA as template following established procedures (Jiao, et al., Mol. Cell. Biol. 16, 6985 (1996)). […]
(§2) In vitro PTPase assays were used to determine the effects of compounds on recombinant PTPases, following established procedures using a synthetic phosphotyrosine peptide or DiFMUP as the substrate (Pathak et al., J. Imumol. 167, 3391 (2001)). […] PTPase activity of individual reactions was measured by adding 100 µL of malachite green solution (UBI) and then quantifying the amounts of free phosphate cleaved by the PTPase from the peptide substrate by spectrometry (OD660 nm). […] Relative PTPase activities were calculated based on the formula: (PTPase activity in the presence of an inhibitory compound/PTPase activity in the absence of the compound)× 100%. […]

The target of data set [3] is T3, PRL-1 (Homo sapiens, UniProt Q93096).
T3 construct: made in house; host or cells: E. coli DH5a
As to the kind of experiment: In vitro PTPase assay, recombinant PRL-1. Type of data set: biochemical. As to conditions: 0.1-100 μg/ml.
Source text: as §1, §2

Data set [4] deals with GSTm8. Briefly: In vitro PTPase assay, GSTm8. As to conditions: 3-4 μg/ml or 10-100 μg/ml. Type of data set: biochemical. From the text: In vitro PTPase assays were used to determine the effects of levamisole (Sigma), pentamidine (American Pharmaceutical Partners, Inc.), and ketoconazole (Sigma) on recombinant PTPases, following established procedures (Pathak et al., J. Imumol. 167, 3391 (2001); Pathak et al., Leukemia 16, 2285 (2002), Yi et al., J. Immunol. 169, 5978 (2002)) using a synthetic phosphotyrosine peptide or DiFMUP as the substrate as detailed above in section I.A.2.

The subject of data set [5] is WM9 cells. As to the kind of experiment: WM9 melanoma cell growth, MTT assay. The note with it: for effect on IFN-induced growth inhibition of WM9 cells: pentamidine 0.625-1.25 μg/ml, ketoconazole 40 μg/ml, sodium stibogluconate 12.5-50 μg/ml. In kind it is cell-based, human. The procedure:
For cell proliferation assays, cells were grown in 10% FCS culture medium containing various amounts of IFNs and/or sodium stibogluconate in 96 well plates and cultured at 37° C. for 3 or 6 days as indicated. The numbers of viable cells in proliferation assays were determined by MTT assays as described in Phatak et al., J. Immunol. 167, 3391 (2001).
Dose response curves were generated for each drug alone, and also the combinations. Median effect plots were generated for IFNs alone, sodium stibogluconate alone, and the combination. The combination index (CI) was determined and plotted vs. fraction affected (FA). Data were analyzed in both modes, mutually exclusive and mutually nonexclusive. The interaction between two mutually nonexclusive drugs is described by the Equation CI=D1/Dx1+D2/Dx2+D1D2/Dx1Dx2, where Dx1 and Dx2 are the doses of drug 1 and drug 2 that are required to inhibit growth x %. […] When CI<1, drugs are synergistic, when CI=1, drugs are additive, and when CI>1, drugs are antagonistic.
Renca (Murphy, G. P., and W. J. Hrushesky. 1973. A murine renal cell carcinoma. J Natl Cancer Inst 50:1013), Jurkat (Gillis, S., and J. Watson. 1980. Biochemical and biological characterization of lymphocyte regulatory molecules. V. Identification of an interleukin 2-producing human leukemia T cell line. J Exp Med 152:1709) and WM9 (Forsberg, K., 1. Valyi-Nagy, C. H. Heldin, M. Herlyn, and B. Westermark. 1993. Platelet-derived growth factor (PDGF) in oncogenesis: development of a vascular connective tissue stroma in xenotransplanted human melanoma producing PDGF-BB. Proc Natl Acad Sci USA 90:393) cell lines were obtained from a colleague at the Cleveland Clinic Foundation (CCF) and cultured in RPMI 1640 medium supplemented with 10% fetal calf serum (FCS). […] SSG has been described previously (Yi, T., M. K. Pathak, D. J. Lindner, M. E. Ketterer, C. Farver, and E. C. Borden. 2002. Anticancer activity of sodium stibogluconate in synergy with IFNs. J Immunol 169:5978).
Background: Tetrazolium assays rely on reduction of a dye to a coloured formazan, in cell work by metabolically active cells.

For data set [6] the following is noted: cited from earlier work.
The subject of data set [7] is tumor-infiltrating and spleen macrophages (F4/80+), T and NK cells. Briefly: Immunohistochemistry of Renca tumors and spleen, Balb/c mice. The note with it: mouse, in vivo.
Procedure: Major internal organs and Renca tumors harvested from mice were fixed in 10% formalin or snap frozen in liquid nitrogen. H & E-stained tissue sections of the fixed samples were prepared and evaluated by microscopy as described previously (Yi, T., M. K. Pathak, D. J. Lindner, M. E. Ketterer, C. Farver, and E. C. Borden. 2002. Anticancer activity of sodium stibogluconate in synergy with IFNs. J Immunol 169:5978). Preparation of frozen tissue sections and immunohistochemistry were performed following established procedures (Joliat, M. J., P. A. Lang, B. L. Lyons, L. Burzenski, M. A. Lynes, T. Yi, J. P. Sundberg, and L. D.
The sections were counterstained with Mayer's hematoxylin prior to microscopic examination. Tissue sections of 2 mice/group were evaluated. The number of immune cells was semi-quantified based on the following scheme: +, 0-1 positive cells/40×field; +, 2-5 positive cells/40×field; ++, 6-10 positive cells/40×field, etc.

Data on 3 compounds can be found in US20080089860A1, “Therapeutic compositions and methods useful in treating cancer” (priority 2006, published 2008).

The term inhibition denotes the drop in the measured response relative to a control, in per cent.

T1 sequence (O75365 whole entry): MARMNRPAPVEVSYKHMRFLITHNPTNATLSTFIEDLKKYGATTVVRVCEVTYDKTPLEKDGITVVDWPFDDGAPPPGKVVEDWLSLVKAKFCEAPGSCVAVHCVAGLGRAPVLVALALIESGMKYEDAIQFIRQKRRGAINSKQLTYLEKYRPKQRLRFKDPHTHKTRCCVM
T2 sequence (Q12974 whole entry): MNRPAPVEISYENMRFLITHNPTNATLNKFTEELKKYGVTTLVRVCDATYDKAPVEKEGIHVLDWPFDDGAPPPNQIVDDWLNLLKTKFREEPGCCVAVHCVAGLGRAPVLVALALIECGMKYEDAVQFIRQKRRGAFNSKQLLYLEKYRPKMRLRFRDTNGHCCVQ
T3 sequence (Q93096 whole entry): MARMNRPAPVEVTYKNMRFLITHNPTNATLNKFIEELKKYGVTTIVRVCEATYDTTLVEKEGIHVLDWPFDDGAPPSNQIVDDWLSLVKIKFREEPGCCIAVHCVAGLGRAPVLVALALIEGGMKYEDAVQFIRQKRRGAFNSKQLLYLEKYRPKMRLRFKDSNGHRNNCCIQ

Consider `CC(=O)N1CCN(c2ccc(OCC3COC(Cn4ccnc4)(c4ccc(Cl)cc4Cl)O3)cc2)CC1` (stereo not drawn) [ketoconazole], for which the “PRL-3 PTPase activity remaining” value in data set [1] is reported as 25-40%. Further, the “effectiveness against PRL-2” value in data set [2] was “not effective”. Moreover, in data set [3], the PRL-1 activity retained is listed as 60-70%. Also, the “inhibitory activity against GSTm8” value in data set [4] is given as “no obvious inhibitory activity”. In addition, the “activity against WM9 cells” value in data set [5] (0.625-20 μg/ml, single agent or with IFN-alpha) is reported as “no apparent activity”. Moreover, in data set [5] (Homo sapiens, WM9, 40 μg/ml, single agent), the inhibition at 40 µg/mL was found to be 67%. Besides, in data set [5], the “effect on IFN-induced growth inhibition of WM9 cells” value is given as “minor augmenting effect”.
Turning to `N=C(N)c1ccc(OCCCCCOc2ccc(C(=N)N)cc2)cc1` [pentamidine], in data set [1], the “PRL-3 PTPase activity remaining” value is recorded as 20-30%. Also, the “effectiveness against PRL-2” value in data set [2] is given as “not effective”. For the same compound, the PRL-1 activity retained in data set [3] is 70-80%. The “inhibitory activity against GSTm8” value in data set [4] is given as “no obvious inhibitory activity”. In addition, the “effect on IFN-induced growth inhibition of WM9 cells” value in data set [5] was “augmented IFN-alpha-induced growth inhibition”. Also, the “growth inhibition of WM9 cells” value in data set [5] (pentamidine 2.5-5 μg/ml, single agent, 6 days) is recorded as 86-97%.
For `O.O.O.O.O.O.O.O.O.O=C([O-])[C@@H]1[O][Sb]2([O-])([O][Sb]34([OH])[O][C@H]([C@H](O)CO)[C@H]([O]3)[C@H](C(=O)[O-])[O]4)[O][C@H]([C@H](O)CO)[C@@H]1[O]2.[Na+].[Na+].[Na+]` [sodium stibogluconate], in data set [6] (human, in vivo), the “clinical tolerability at therapeutic dosages” value is listed as “well tolerated”. Moreover, in data set [6] (standard dosage 10-20 mg/kg/day), the serum levels is at least 10000 ng/mL. Further, the “inhibition of PRL-3 after washing” value in data set [1] is recorded as “not relieved by a washing process”. In data set [1] (10 μg/ml, pre-incubation 30 or 60 minutes), the “inactivation of PRL-3” value is listed as “nearly complete inactivation”. Further, the “growth of WM9 melanoma cells” value in data set [5] (SSG 6.25-200 μg/ml, 6 days) is listed as “inhibited by SSG in a dose-dependent manner”. In addition, the “effect on IFN-induced growth inhibition of WM9 cells” value in data set [5] is recorded as “greatly enhanced”. In addition, the “WM9 cells in day 6 culture” value in data set [5] (single agent, 50 μg/ml and 100 μg/ml) is “killed all cells”. The “numbers of tumor-infiltrating T cells or NK cells” value in data set [7] is listed as “little effect”.
